Experimental data as given in patent US4169096A, “Antibiotic compounds” (priority 1977, dated 1979).
Structures can show the parent of a compound that is named as a salt.

What was measured:
B. fragilis A20926 = assay: Localized infection with B. fragilis in mice; assay type: in vivo; details: for mean score: control 4.2; for sum of score: control 21; for infectivity level: control 100%
in vivo = details: po, LD50, po

COC(=O)C1C(C)OC2(C)CC(=O)C3OC12OC(C(C)/C=C(C)/C=C/C(=O)C1=C(O)CNC1=O)C3C (stereo not drawn) [Bu-2313B (Na salt)]
LD50 (Acute toxicity; ip): 55 mg/kg
LD50 (Acute toxicity; sc): 200 mg/kg
mean score (B. fragilis A20926; oral, 6.3 × 5 mg/kg): 3.4
sum of score (B. fragilis A20926; oral, 6.3 × 5 mg/kg): 17
infectivity level (B. fragilis A20926; oral, 6.3 × 5 mg/kg): 81.0%
mean score (B. fragilis A20926; oral, 25 × 5 mg/kg): 3.0
sum of score (B. fragilis A20926; oral, 25 × 5 mg/kg): 15
infectivity level (B. fragilis A20926; oral, 25 × 5 mg/kg): 71.4%
mean score (B. fragilis A20926; oral, 100 × 5 mg/kg): 2.4
sum of score (B. fragilis A20926; oral, 100 × 5 mg/kg): 12
infectivity level (B. fragilis A20926; oral, 100 × 5 mg/kg): 57.1%
mean score (B. fragilis A20926; oral, […] 5 mg/kg): 4.0
sum of score (B. fragilis A20926; oral, […] 5 mg/kg): 20
infectivity level (B. fragilis A20926; oral, […] 5 mg/kg): 95.2%
mean score (B. fragilis A20926; subcutaneous, 0.8 × 5 mg/kg): 4.0
sum of score (B. fragilis A20926; subcutaneous, 0.8 × 5 mg/kg): 20
infectivity level (B. fragilis A20926; subcutaneous, 0.8 × 5 mg/kg): 95.2%
mean score (B. fragilis A20926; subcutaneous, 3.1 × 5 mg/kg): 3.4
sum of score (B. fragilis A20926; subcutaneous, 3.1 × 5 mg/kg): 17
infectivity level (B. fragilis A20926; subcutaneous, 3.1 × 5 mg/kg): 81.0%
mean score (B. fragilis A20926; subcutaneous, 50 × 5 mg/kg): 2.2
sum of score (B. fragilis A20926; subcutaneous, 50 × 5 mg/kg): 11
infectivity level (B. fragilis A20926; subcutaneous, 50 × 5 mg/kg): 52.4%
mean score (B. fragilis A20926; subcutaneous, […] 5 mg/kg): 2.8
sum of score (B. fragilis A20926; subcutaneous, […] 5 mg/kg): 14
infectivity level (B. fragilis A20926; subcutaneous, […] 5 mg/kg): 66.7%
LD50 (in vivo): 280 mg/kg
